Data taken from patent US11213032B2, “Insecticidal compounds” (SYNGENTA PARTICIPATIONS AG, priority 2017, dated 2022).

Tests used:
Format in all cases: in vivo
[1] = system: Spodoptera littoralis (Egyptian Cotton Leaf Worm); assay: Spodoptera littoralis (Egyptian cotton leaf worm) on cotton leaf discs; details: foliar, 72 h, L1 larvae, 3 days after infestation
Description: Spodoptera littoralis (Egyptian Cotton Leaf Worm)
Cotton leaf discs were placed onto agar in 24-well microtiter plates and sprayed with aqueous test solutions prepared from 10,000 ppm DMSO stock solutions. After drying the leaf discs were infested with five L1 larvae. The samples were assessed for mortality, anti-feeding effect, and growth inhibition in comparison to untreated samples 3 days after infestation. Control of Spodoptera littoralis by a test sample is given when at least one of the categories mortality, anti-feedant effect, and growth inhibition is higher than the untreated sample.

[2] = system: Plutella xylostella (Diamond Back Moth); assay: Plutella xylostella (diamond back moth) feeding/contact activity; details: 120 h, L2 larvae, artificial diet, 5 days after infestation
Description: Plutella xylostella (Diamond Back Moth): Feeding/Contact Activity
24-well microtiter plates with artificial diet were treated with aqueous test solutions prepared from 10,000 ppm DMSO stock solutions by pipetting. After drying, the plates were infested with L2 larvae (10 to 15 per well). The samples were assessed for mortality 5 days after infestation.

[3] = system: Thrips tabaci (Onion thrips); assay: Thrips tabaci (onion thrips) feeding/contact activity; details: 144 h, mixed ages, 6 days after infestation
Description: Thrips tabaci (Onion thrips) Feeding/Contact Activity
Sunflower leaf discs were placed on agar in 24-well microtiter plates and sprayed with aqueous test solutions prepared from 10,000 ppm DMSO stock solutions. After drying the leaf discs were infested with a thrips population of mixed ages. The samples were assessed for mortality 6 days after infestation.

[4] = system: Myzus persicae (Green Peach Aphid); assay: Myzus persicae (green peach aphid) feeding/contact activity; details: 144 h, mixed ages, 6 days after infestation
Description: Myzus persicae (Green Peach Aphid): Feeding/Contact Activity
Sunflower leaf discs were placed onto agar in a 24-well microtiter plate and sprayed with aqueous test solutions prepared from 10,000 ppm DMSO stock solutions. After drying, the leaf discs were infested with an aphid population of mixed ages. The samples were assessed for mortality 6 days after infestation.

[5] = system: Diabrotica balteata (Corn Root Worm); assay: Diabrotica balteata (corn root worm) on maize sprouts, spray; details: 96 h, L2 larvae, 4 days after infestation, read-out: effect in at least one of the two categories (mortality or growth inhibition)
Description: Diabrotica balteata (Corn Root Worm)
Maize sprouts placed onto an agar layer in 24-well microtiter plates were treated with aqueous test solutions prepared from 10,000 ppm DMSO stock solutions by spraying. After drying, the plates were infested with L2 larvae (6 to 10 per well). The samples were assessed for mortality and growth inhibition in comparison to untreated samples 4 days after infestation.

[6] = system: Euschistus heros (Neotropical Brown Stink Bug); assay: Euschistus heros (neotropical brown stink bug) on soybean leaves, spray; details: 120 h, N2 nymphs, 5 days after infestation, read-out: effect in at least one of the two categories (mortality or growth inhibition)
Description: Euschistus heros (Neotropical Brown Stink Bug)
Soybean leaves on agar in 24-well microtiter plates were sprayed with aqueous test solutions prepared from 10,000 ppm DMSO stock solutions. After drying the leaves were infested with N2 nymphs. The samples were assessed for mortality and growth inhibition in comparison to untreated samples 5 days after infestation.

[7] = system: Tetranychus urticae (Two-Spotted Spider Mite); assay: whole plant or invertebrate; details: 192 h
Description: Tetranychus urticae (Two-Spotted Spider Mite): Feeding/Contact Activity
Bean leaf discs on agar in 24-well microtiter plates were sprayed with aqueous test solutions prepared from 10,000 ppm DMSO stock solutions. After drying the leaf discs were infested with a mite population of mixed ages. The samples were assessed for mortality on mixed population (mobile stages) 8 days after infestation.

CCOC1=NOC(NC(=O)c2ccc(C3=NS[C@](c4cc(Cl)cc(Cl)c4)(C(F)(F)F)C3)cc2C)C1 (stereo partly drawn) [Compound A01, 4-[(5R)-5-(3,5-dichlorophenyl)-5-(trifluoromethyl)-4H-isothiazol-3-yl]-N-(3-ethoxy-4,5-dihydroisoxazol-5-yl)-2-methyl-benzamide]
≥ 80%: percent control (mortality, anti-feedant effect or growth inhibition) at 200 ppm [1] | mortality at 200 ppm [2] | mortality at 200 ppm [3] | mortality at 200 ppm [4] | percent effect (mortality or growth inhibition) at 200 ppm [5] | percent effect (mortality or growth inhibition) at 200 ppm [6] | mortality at 200 ppm [7]

CCOC1=NOC(NC(=O)c2ccc(N3CCC(c4cc(Cl)cc(Cl)c4)(C(F)(F)F)C3)cc2C)C1 (stereo not shown) [Compound A02, 4-[3-(3,5-dichlorophenyl)-3-(trifluoromethyl)pyrrolidin-1-yl]-N-(3-ethoxy-4,5-dihydroisoxazol-5-yl)-2-methyl-benzamide]
≥ 80%: percent control (mortality, anti-feedant effect or growth inhibition) at 200 ppm [1] | mortality at 200 ppm [2] | mortality at 200 ppm [3] | percent effect (mortality or growth inhibition) at 200 ppm [5] | percent effect (mortality or growth inhibition) at 200 ppm [6] | mortality at 200 ppm [7]
